A short description of series [1]: in vitro. Particulars: hepatocytes.
A short description of series [2]: in vitro. As to conditions: SD, HW or BN, rat, plasma.
Series [3] can be described thus: in vitro. As to conditions: human.
Series [4] is described as follows: in vitro. As to conditions: human, plasma, PPB.
A short description of series [5]: physchem. Particulars: octan-1-ol/water, pH 7.4, LogD7.4.
A short description of series [6]: physchem. Particulars: pH 7.4 buffer.

This is an account of results in ChEMBL document CHEMBL3301361, “Experimental in vitro DMPK and physicochemical data on a set of publicly disclosed compounds”.

Converted amounts (≈) assume the structure as drawn.

For the compound `CN(C)C(C)(C(=O)OC1CC[N+](C)(C)CC1)c1ccccc1` (configuration not stated), in the series “in vitro [1]”, the intrinsic clearance (hepatocyte CLint) was 16 µL/min/1e6 cells. The same compound gave a fraction unbound at 5 h in the series “in vitro [2]” of 0.454. In “in vitro [3]” (microsomes), the microsomal CLint is < 3 µL/min/mg.
Turning to `Cc1ccc(S(=O)(=O)Nc2c(C(=O)N[C@@H](C)C(C)(C)C)c(C)nn2C2CCCC2)cc1`, the fraction unbound at 5 h is 0.0214 in the series “in vitro [4]” and 0.0268 in the series “in vitro [2]”. Also, the hepatocyte CLint in the series “in vitro [1]” is 8 µL/min/1e6 cells. The logD in “physchem [5]” stood at 2. The microsomal CLint in the series “in vitro [3]” (microsomes) came to 21 µL/min/mg.
In the series “in vitro [1]”, `Cc1ccc(S(=O)(=O)Nc2c(C(=O)N[C@@H](C)C(C)(C)C)c(C)nn2C2CCS(=O)(=O)CC2)cc1` yielded a hepatocyte CLint of 4 µL/min/1e6 cells. The logD in the series “physchem [5]” turned out to be 0.25. Also, the fraction unbound at 5 h in the series “in vitro [2]” was 0.258. The microsomal CLint in the series “in vitro [3]” (microsomes) is < 3 µL/min/mg.
As for `O=C(Nc1nc2ccccc2[nH]1)c1ccccc1`, the hepatocyte CLint in the series “in vitro [1]” is > 150 µL/min/1e6 cells. Also, the fraction unbound at 5 h in the series “in vitro [2]” is 0.126. In the series “in vitro [3]” (liver microsomes), this compound had a microsomal CLint of 64 µL/min/mg.
With `C[C@]12Cc3cnn(-c4ccc(F)cc4)c3C=C1CC[C@@]2(O)CCc1ccc(F)cc1C(N)=O`, the results for the fraction unbound at 5 h in “in vitro [4]” and in the series “in vitro [2]” were 0.0321 and 0.0046, respectively. Besides, the hepatocyte CLint in “in vitro [1]” was found to be 52.5 µL/min/1e6 cells. In addition, the logD in the series “physchem [5]” amounted to 3.8. For the same compound, the microsomal CLint in “in vitro [3]” (microsomes) came to 105 µL/min/mg.
For the compound `Cc1c(Cl)ccc(OC2CCN(CC3CCN([C@@H](Cc4ccc(F)cc4)C(=O)O)CC3)CC2)c1Cl`, the results for the fraction unbound at 5 h in “in vitro [4]” and in “in vitro [2]” were 0.0374 and 0.232, respectively. This compound also registered an intrinsic metabolic clearance (hepatocyte CLint) in “in vitro [1]” of 13.8 µL/min/1e6 cells. The microsomal CLint in the series “in vitro [3]” (liver microsomes) is < 3 µL/min/mg.
With `Cc1cn([C@H]2CCCN([C@@H](CC(C)C)c3ccc(C(=O)O)c(Oc4cccc(Cl)c4)c3)C2)c(=O)[nH]c1=O`, the fraction unbound at 5 h is 0.0111 in “in vitro [4]” and 0.016 in the series “in vitro [2]”. This compound registered a hepatocyte CLint in “in vitro [1]” of 9.55 µL/min/1e6 cells. In the series “physchem [5]”, this compound showed a logD of 0.93.
On to `CC(C)c1nc2ccccc2n1-c1nc(N2CCOCC2)c2nc(OC3CN(C4CCS(=O)(=O)CC4)C3)n(C)c2n1`, for which the fraction unbound at 5 h in “in vitro [4]” and in the series “in vitro [2]” was 0.22 in each case. Besides, the hepatocyte CLint in “in vitro [1]” worked out at 10 µL/min/1e6 cells. This compound had a logD in “physchem [5]” of 2.9. Further, in “in vitro [3]” (microsomes), the microsomal CLint was found to be 20.4 µL/min/mg.
In turn, `Cc1nocc1C(=O)Nc1ccc(-c2ccccc2OC(F)(F)F)c(N)n1` had a hepatocyte CLint in the series “in vitro [1]” of 74.1 µL/min/1e6 cells. The compound further returned a logD in “physchem [5]” of 3.7. For the same compound, the fraction unbound at 5 h in “in vitro [2]” was 0.0366. The intrinsic clearance (microsomal CLint) in “in vitro [3]” (liver microsomes) was < 3 µL/min/mg.
For `COc1ccc(CNC(=O)Nc2ncc([N+](=O)[O-])s2)cc1`, the fraction unbound at 5 h in “in vitro [4]” is 0.0032; in “in vitro [2]”, 0.0108. Moreover, in “in vitro [1]”, the hepatocyte CLint was 91 µL/min/1e6 cells. The compound also showed a logD in the series “physchem [5]” of 2.9. The compound also returned a microsomal CLint in “in vitro [3]” (liver microsomes) of 56 µL/min/mg.
For `CC(C)(CCCCCOCCc1ccccc1)NCCc1ccc(O)c2nc(O)sc12`, in the series “in vitro [1]”, the hepatocyte CLint was 93 µL/min/1e6 cells. Besides, the logD in “physchem [5]” was found to be 2.92. The compound also showed a fraction unbound at 5 h in the series “in vitro [2]” of 0.0229. In “in vitro [3]” (microsomes), this compound displayed a microsomal CLint of 48.7 µL/min/mg.
`CCOc1ccc(-n2c([C@@H](C)N(Cc3cccnc3)C(=O)Cc3ccc(OC(F)(F)F)cc3)nc3ncccc3c2=O)cc1`: the fraction unbound at 5 h in the series “in vitro [4]” was 0.0477; in “in vitro [2]” it was 0.0293. This compound also had a hepatocyte CLint in “in vitro [1]” of 20 µL/min/1e6 cells. Besides, in the series “physchem [5]”, the logD came to 3.7.
For `CC1(C)[C@@H]2CC[C@@]1(CS(=O)(=O)N1CCN(c3ccc(C(F)(F)F)cn3)CC1)C(=O)C2`, the figures for the fraction unbound at 5 h in “in vitro [4]” and in “in vitro [2]” were 0.0092 and 0.0191, respectively. The same compound came in with a hepatocyte CLint in “in vitro [1]” of 141 µL/min/1e6 cells. Further, the intrinsic metabolic clearance (microsomal CLint) in the series “in vitro [3]” (liver microsomes) came out at 51 µL/min/mg.
In the case of `O=C(NC1CC1)c1cn(-c2cccc(C#Cc3cccnc3)c2)c2ncccc2c1=O`, the hepatocyte CLint in the series “in vitro [1]” is 29 µL/min/1e6 cells. In the series “in vitro [2]”, the fraction unbound at 5 h was 0.0082. In addition, the microsomal CLint in “in vitro [3]” (microsomes) came to 7 µL/min/mg.
In “in vitro [1]”, `C[C@H](CO)n1ccc2c(NC(=O)Cc3ccc(Cl)c(C(F)(F)F)c3)cccc2c1=O` had a hepatocyte CLint of 29 µL/min/1e6 cells. The compound also registered a logD in the series “physchem [5]” of 3.49. Besides, in the series “in vitro [2]”, the fraction unbound at 5 h is 0.0391. Besides, the microsomal CLint in “in vitro [3]” (liver microsomes) was < 3 µL/min/mg.
For `O=C(CC12CC3CC(CC(C3)C1)C2)Nc1cccc2c(=O)n(C(CO)CO)ccc12`, in that order: 19 µL/min/1e6 cells, 2.62, 0.117 and 42 µL/min/mg.
The compound `CCc1c2c(nc3ccc(O)cc13)-c1cc3c(c(=O)n1C2)COC(=O)[C@]3(O)CC` [7-ETHYL-10-HYDROXYCAMPTOTHECIN] showed a hepatocyte CLint in “in vitro [1]” of 24 µL/min/1e6 cells. For the same compound, the logD in “physchem [5]” was found to be 1.6. Also, the fraction unbound at 5 h in “in vitro [2]” was 0.0948. In the series “in vitro [3]” (microsomes), this compound displayed a microsomal CLint of 25.1 µL/min/mg.
As for `C[C@@H]1C[C@H]2[C@@H]3CCC4=CC(=O)C=C[C@]4(C)[C@@]3(F)[C@@H](O)C[C@]2(C)[C@@]1(O)C(=O)CO` [DEXAMETHASONE], the thermodynamic solubility in the series “physchem [6]” is 141 µM (≈ 55.5 µg/mL). Besides, the fraction unbound at 5 h in the series “in vitro [4]” was 0.285; in “in vitro [2]” it was 0.126. For the same compound, in the series “in vitro [1]”, the hepatocyte CLint is 31 µL/min/1e6 cells. Moreover, in “physchem [5]”, the logD is 1.87.
`CCc1cnn2c(NCc3ccc[n+]([O-])c3)cc(N3CCCC[C@H]3CCO)nc12` [DINACICLIB]: the fraction unbound at 5 h in “in vitro [4]” was 0.0988; in “in vitro [2]”, 0.176. Also, the hepatocyte CLint in the series “in vitro [1]” is > 150 µL/min/1e6 cells. Moreover, the microsomal CLint in “in vitro [3]” (microsomes) is > 150 µL/min/mg.
In the case of `Cc1nc(-c2ccc(OCC(C)C)c(C#N)c2)sc1C(=O)O` [FEBUXOSTAT], the intrinsic clearance (hepatocyte CLint) in “in vitro [1]” was 12.7 µL/min/1e6 cells. This compound returned a logD in the series “physchem [5]” of 0.94. The compound also gave a fraction unbound at 5 h in “in vitro [2]” of 0.0052. Further, the microsomal CLint in the series “in vitro [3]” (microsomes) is < 3 µL/min/mg.

The term hepatocyte CLint denotes the capacity of the preparation to metabolise the compound, expressed as a volume cleared per time. The low end stands for slow turnover, the high end for rapid turnover. What is called fraction unbound is the share of the substance not bound to proteins or other matrix. High values mean much free substance, low ones little free substance. One may read the microsomal CLint as a measure of how fast metabolising enzymes remove a compound, apart from limits set by blood flow. As usually defined, the logD is the decadic logarithm of the distribution of all forms, ionised or not, between an organic phase and buffer at a given pH. The term solubility (thermodynamic) denotes solubility found after equilibrating the solid with the medium.
